Test results reported in patent US9758527B2, “Cyclohexene derivative, preparation method therefor, and pharmaceutical composition for preventing or treating metabolic diseases, containing same as active ingredient” (HYUNDAI PHARM CO., LTD., priority 2014, dated 2017).
Where a name gives a salt, the structure may show the parent alone. Read-outs that look alike come from different tables or passages of the source.

Experiments:
[1] = molecular target: T1, G protein-coupled receptor 119 (GPR-119) (Mesocricetus auratus, UniProt A0A1U8CD06); test: Evaluation of cAMP activity in HIT-T15 cells (HTRF cAMP dynamic kit); assay type: cell-based, hamster; conditions: cAMP activation
T1 construct: hamster-derived β-cells containing G protein-coupled receptor 119 (GPR-119), HIT-T15 cells; host or cells: HIT-T15 (hamster pancreatic β-cells)
T1 sequence (A0A1U8CD06 1-334): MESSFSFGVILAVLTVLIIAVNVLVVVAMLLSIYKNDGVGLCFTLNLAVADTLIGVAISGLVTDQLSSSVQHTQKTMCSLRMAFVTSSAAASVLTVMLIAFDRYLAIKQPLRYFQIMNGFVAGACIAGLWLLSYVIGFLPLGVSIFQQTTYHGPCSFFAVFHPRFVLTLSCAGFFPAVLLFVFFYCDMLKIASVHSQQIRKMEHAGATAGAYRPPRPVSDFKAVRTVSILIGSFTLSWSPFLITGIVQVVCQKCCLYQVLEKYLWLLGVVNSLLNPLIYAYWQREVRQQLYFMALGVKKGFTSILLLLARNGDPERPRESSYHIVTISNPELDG
Summary of the method: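 HIT-T15 cells, 60,000/well, treated next day with compound at six concentrations ([…]) for 1 h at 37° C. Lysate cAMP quantified by HTRF competitive immunoassay (D2-cAMP, cryptate anti-cAMP); activity taken as change in FRET signal relative to DMSO.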

blood glucose level = test: Oral glucose tolerance test (OGTT) in high-fat diet model; assay type: in vivo; conditions: hypoglycemic level, 20 mg/kg oral, glucose 2 g/kg oral after 30 minutes; for inhibition in vivo at 20 mg/kg: Mus musculus, 2 h, read-out: % AUC
Experimental: To evaluate in vivo effective effects of the cyclohexene derivatives according to the present invention, experiments were carried out, as follows.
Specifically, male C57BL/6J (C57 black 6) […] (8 to 10 weeks old) in a high-fat diet model were acclimated for at least 7 days, and only healthy rat populations were selected and subjected to an oral glucose tolerance test (OGTT). The rats were fasted for 12 to 15 hours, and then randomly divided into groups with five rats per group. Thereafter, each of the compounds of Examples 1, 14, 48, 69, 80, 118, 139, 147, 148, 169, 190, 199, 200, 204, 227, and Comparative Examples 1 and 2 according to the present invention was administered to the rats at a dose of 20 mg/kg. In this case, a vehicle (0.5%, carboxymethyl cellulose (CMC)) was administered as an untreated group, and the dose of the compound administered together with the vehicle was orally administered at 10 ml/kg. After 30 minutes of administration, glucose (2 g/kg) was orally administered at a dose of 10 ml/kg. A blood glucose level was measured using an Accu-Chek Active Strip (Rosche Diagnostic Co.). In this case, the glucose level in blood collected via caudal venipuncture was measured at time points of −30, 0, 20, 40, 60, and 120 minutes after glucose administration.
In Table 3, the unit “% AUC (area under the curve)” represents a hypoglycemic level.

[2] = 1 h at 37° C., six concentrations, read-out: EC50

Structure (SMILES)	EC50 [1, 2] [nM]	EC50 ([1]; read-out: EC50 value) [nM]	EC50 ([1]; EC50 (nM), 1 h at 37° C., six concentrations) [nM]	inhibition in vivo at 20 mg/kg (blood glucose level) [%]	% AUC (blood glucose level) [% AUC]
CC(C)(C)OC(=O)N1CCC(COc2ccc(C3=CCC(C(=O)NC(CO)CO)CC3)nc2)CC1 (centres unmarked) [Example 14, tert-butyl 4-((6-(4-(1,3-dihydroxypropan-2-ylcarbamoyl)cyclohex-1-enyl)pyridin-3-yloxy)methyl)piperidine-1-carboxylate]	650	–	–	21.9	–
CC(C)(C)OC(=O)N1CCC(COc2ccc(C3=CCC(C(=O)N4CCOCC4)CC3)cc2F)CC1 (centres unmarked) [Example 69, tert-butyl 4-((2-fluoro-4-(4-(morpholine-4-carbonyl)cyclohex-1-enyl)phenoxy)methyl)piperidine-1-carboxylate]	7	≤ 50	–	19.1	–
CC(C)c1noc(N2CCC(COc3ccc(-c4ccc(S(C)(=O)=O)cc4)nc3)CC2)n1 [Comparative Example 2, 2-(4-methanesulfonylphenyl)-5-({1-[3-(propan-2-yl)-1,2,4-oxadiazol-5-yl]piperidin-4-yl}methoxy)pyridine, reference compound]	–	–	49	15.3	–
CC(C)(C)OC(=O)N1CCC(COc2ccc(C3=CCC(C(=O)NCCO)CC3)cc2)CC1 (centres unmarked) [Example 190, tert-butyl 4-((4-(4-(2-hydroxyethylcarbamoyl)cyclohex-1-enyl)phenoxy)methyl)piperidine-1-carboxylate]	–	–	–	–	20.9
C[C@H](CO)NC(=O)C1CC=C(c2ccc(OCC3CCN(C(=O)OC(C)(C)C)CC3)cc2)CC1 (stereo partly drawn) [Example 1, tert-butyl 4-((4-(4-((R)-1-hydroxypropan-2-ylcarbamoyl)cyclohex-1-enyl)phenoxy)methyl)piperidine-1-carboxylate]	65	–	–	28.5	–
CC(C)c1noc(C2CCN(c3ncnc(Nc4ccc(S(C)(=O)=O)cc4F)c3[N+](=O)[O-])CC2)n1 [Comparative Example 1, N-(2-fluoro-4-methylsulfonylphenyl)-5-nitro-6-[4-(3-propan-2-yl-1,2,4-oxadiazol-5-yl)piperidin-1-yl]pyrimidine-4-amine, reference compound]	–	–	–	13.5	–

Second part, led by results:

EC50 [1, 2] [nM]	EC50 ([1]; read-out: EC50 value) [nM]	EC50 ([1]; EC50 (nM), 1 h at 37° C., six concentrations) [nM]	Structure (SMILES)	inhibition in vivo at 20 mg/kg (blood glucose level) [%]	% AUC (blood glucose level) [% AUC]
9	–	–	CCc1cnc(N2CCC(COc3ccc(C4=CCC(C(=O)N5CCC(CO)CC5)CC4)cc3)CC2)nc1 (centres unmarked) [Example 169, (4-(4-((1-(5-ethylpyrimidin-2-yl)piperidin-4-yl)methoxy)phenyl)cyclohex-3-enyl)(4-(hydroxymethyl)piperidin-1-yl)methanone hydrochloride]	21.7	–
130	–	–	CC(C)c1noc(N2CCC(COc3ccc(C4=CCC(C(=O)NCC(=O)N5CCC[C@H]5C#N)CC4)cc3F)CC2)n1 (stereo partly drawn) [Example 139, N-(2-((S)-2-cyanopyrrolidin-1-yl)-2-oxoethyl)-4-(3-fluoro-4-((1-(3-isopropyl-1,2,4-oxadiazol-5-yl)piperidin-4-yl)methoxy)phenyl)cyclohex-3-enecarboxamide]	25.4	–
13	≤ 50	–	CC(C)c1noc(N2CCC(COc3ccc(C4=CCC(C(=O)N5CCC[C@H]5CO)CC4)cc3)CC2)n1 (stereo partly drawn) [Example 148, ((S)-2-(hydroxymethyl)pyrrolidin-1-yl)(4-(4-((1-(3-isopropyl-1,2,4-oxadiazol-5-yl)piperidin-4-yl)methoxy)phenyl)cyclohex-3-enyl)methanone]	22.6	–
89	–	–	CC(C)c1noc(N2CCC(COc3ccc(C4=CCC(C(=O)NC(CO)CO)CC4)cc3F)CC2)n1 (centres unmarked) [Example 80, N-(1,3-dihydroxypropan-2-yl)-4-(3-fluoro-4-((1-(3-isopropyl-1,2,4-oxadiazol-5-yl)piperidin-4-yl)methoxy)phenyl)cyclohex-3-enecarboxamide]	19.7	–
23	≤ 50	–	CC(C)(C)OC(=O)N1CCC(COc2ccc(C3=CCC(C(=O)N4CCC(CCO)CC4)CC3)cc2)CC1 (centres unmarked) [Example 200, tert-butyl 4-((4-(4-(4-(2-hydroxyethyl)piperidine-1-carbonyl)cyclohex-1-enyl)phenoxy)methyl)piperidine-1-carboxylate]	24	–
